Patent publication US8507539B2, “Potassium channel blockers and uses thereof” (Bionomics Limited, priority 2008, dated 2013)
Where two headings read alike, the source gives them in different places.

Columns and labels:
Type in all cases: cell-based
hKv1.3 = hKv1.3 (Homo sapiens, UniProt P22001); experiment: Whole-cell patch-clamp block of Kv1.3 current in CHO cells stably expressing hKv1.3
Experimental: (§1) The effectiveness of the generated compounds in blocking the Kv1.3 current was assayed on CHO cells stably expressing hKv1.3. Cells were grown in F12 Kaighns' medium supplemented with 10% fetal calf serum, 2 mM L-glutamine, 1 mM Na^+ pyruvate, 100 units/ml penicillin, 100 Fg/ml streptomycin and 500 μg/ml G418 (to keep them under selection pressure). Kv1.3 currents were measured using the whole-cell configuration of the patch-clamp technique and were evoked by 500 ms depolarising voltage pulses to +40 mV from a holding potential of −80 mV at 30 sec intervals. Cells were continuously bathed in Ringers solution containing (mM): 160 NaCl, 4.5 KCl, 2.5 CaCl2, 1 MgCl2, 10 HEPES, pH 7.4, 290-310 mOsm. The internal (pipette) solution contained (mM): 134 KF, 2 MgCl2, 10 HEPES, 10 EGTA (pH 7.2, 290-310 mOsm). Series resistance compensation (60-80%) was applied when the peak current amplitude exceeded 2 nA. Compounds initially dissolved in DMSO were diluted in bath solution (final DMSO concentration 0.5%) and applied directly to the recording chamber at increasing concentrations allowing ample time for steady state block to be achieved between each concentration. Each compound was tested at 4-5 different concentrations in triplicate. IC50 values were determined by fitting the average normalised reduction of the current integral to the Hill equation.

hKv1.1 = biological target: T1, hKv1.1 (Homo sapiens, UniProt Q09470); experiment: Whole-cell patch-clamp inhibition of Kv1.1 currents in CHO cells stably transfected with hKv1.1; details: from IC50 values, CHO-hKv1.1 vs CHO-hKv1.3
T1 construct: expressed in transfected cells
Experimental: as §1
(§2) IC50 values for inhibition of Kv1.3 currents were determined as described above. IC50 values for inhibition of Kv1.1 and Kv1.5 currents were determined by the method above using Chinese Hamster Ovary (CHO) cells stably transfected with hKv1.1 and hKv1.5.

hKv1.5 = biological target: T2, hKv1.5 (Homo sapiens, UniProt P22460); experiment: Whole-cell patch-clamp inhibition of Kv1.5 currents in CHO cells stably transfected with hKv1.5; details: from IC50 values, CHO-hKv1.5 vs CHO-hKv1.3
T2 construct: expressed in transfected cells
Experimental: as §1, §2

[1] = CHO cells stably expressing hKv1.3, whole-cell patch clamp, reported as ranges, read-out: IC50 (Kv1.3)
[2] = IC50 for inhibition of Kv1.3 currents, CHO-hKv1.3, read-out: Potency for Kv1.3

T2 sequence (P22460 whole entry): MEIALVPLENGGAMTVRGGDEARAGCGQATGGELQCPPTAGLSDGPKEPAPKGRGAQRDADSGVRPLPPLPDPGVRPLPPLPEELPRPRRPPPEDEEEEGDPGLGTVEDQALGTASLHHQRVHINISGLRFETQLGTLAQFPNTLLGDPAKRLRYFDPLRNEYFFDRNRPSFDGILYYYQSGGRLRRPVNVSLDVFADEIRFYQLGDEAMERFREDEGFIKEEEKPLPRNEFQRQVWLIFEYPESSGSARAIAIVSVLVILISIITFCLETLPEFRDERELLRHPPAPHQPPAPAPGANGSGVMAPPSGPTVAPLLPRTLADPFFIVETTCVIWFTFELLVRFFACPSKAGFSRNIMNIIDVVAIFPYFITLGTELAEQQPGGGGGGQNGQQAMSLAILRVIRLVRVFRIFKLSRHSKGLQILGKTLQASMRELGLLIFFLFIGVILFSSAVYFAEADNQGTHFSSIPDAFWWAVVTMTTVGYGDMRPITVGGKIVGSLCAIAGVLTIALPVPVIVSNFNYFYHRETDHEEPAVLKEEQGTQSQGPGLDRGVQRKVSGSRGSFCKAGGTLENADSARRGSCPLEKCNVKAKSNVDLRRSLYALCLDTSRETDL
Sequence of hKv1.3 (P22001 whole entry): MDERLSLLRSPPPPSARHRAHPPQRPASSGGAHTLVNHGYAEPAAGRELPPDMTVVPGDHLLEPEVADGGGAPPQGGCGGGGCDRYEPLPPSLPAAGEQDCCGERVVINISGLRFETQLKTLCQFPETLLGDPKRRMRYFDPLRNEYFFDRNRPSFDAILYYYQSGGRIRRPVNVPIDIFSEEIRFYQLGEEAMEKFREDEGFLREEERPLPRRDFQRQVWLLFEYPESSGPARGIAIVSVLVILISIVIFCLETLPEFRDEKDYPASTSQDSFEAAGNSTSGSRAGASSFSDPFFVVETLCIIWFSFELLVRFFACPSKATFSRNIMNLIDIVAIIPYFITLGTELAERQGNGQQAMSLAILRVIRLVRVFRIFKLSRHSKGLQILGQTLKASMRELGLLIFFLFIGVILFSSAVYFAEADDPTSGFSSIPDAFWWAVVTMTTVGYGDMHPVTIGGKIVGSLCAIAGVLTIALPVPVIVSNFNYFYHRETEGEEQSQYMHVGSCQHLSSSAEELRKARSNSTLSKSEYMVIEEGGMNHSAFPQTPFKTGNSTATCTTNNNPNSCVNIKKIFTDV
T1 sequence (Q09470 whole entry): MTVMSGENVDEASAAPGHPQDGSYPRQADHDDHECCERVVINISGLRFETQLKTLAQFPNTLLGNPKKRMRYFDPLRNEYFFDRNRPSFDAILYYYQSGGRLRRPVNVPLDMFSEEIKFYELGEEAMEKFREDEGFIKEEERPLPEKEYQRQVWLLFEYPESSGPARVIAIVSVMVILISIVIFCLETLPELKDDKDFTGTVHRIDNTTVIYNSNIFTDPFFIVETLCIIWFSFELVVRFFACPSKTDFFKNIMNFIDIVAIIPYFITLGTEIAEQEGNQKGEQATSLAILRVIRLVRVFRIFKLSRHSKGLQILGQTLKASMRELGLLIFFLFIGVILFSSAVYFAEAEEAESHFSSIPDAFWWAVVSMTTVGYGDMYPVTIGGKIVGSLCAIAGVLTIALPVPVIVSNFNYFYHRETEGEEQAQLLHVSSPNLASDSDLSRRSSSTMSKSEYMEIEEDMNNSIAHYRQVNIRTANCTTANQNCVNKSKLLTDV

| Compound | IC50 (hKv1.3; [1]) [nM] | IC50 (hKv1.3; [2]) [nM] | Selectivity for Kv1.3 over Kv1.1 (hKv1.1) [fold] | Selectivity for Kv1.3 over Kv1.5 (hKv1.5) [fold] |
| --- | --- | --- | --- | --- |
| CC(=O)c1c(OCCNC2CCCCC2)c(OCCC(C)c2ccc(F)cc2)c2oc(C)nc2c1C (stereo not shown) [Example 18, 5-Acetyl-6-(2-cyclohexylamino-ethoxy)-7-[3-(4-fluorophenyl)butoxy]-2,4-dimethyl-benzooxazole] | < 50 | < 50 | 11 | 12 |
| CC(=O)c1c(OCCN2CCCCC2)c(OCCC(C)c2ccc(F)cc2)c2oc(C)nc2c1C (stereo not shown) [Example 42, 5-Acetyl-7-[3-(4-fluorophenyl)butoxy]-6-[2-(piperidin-1-yl)-ethoxy]-2,4-dimethyl-benzooxazole] | < 50 | < 50 | 25 | 24 |
| CC(=O)c1c(OCCN2CCSCC2)c(OCCC(C)c2ccc(F)cc2)c2oc(C)nc2c1C (stereo not shown) [Example 13] | < 50 | < 50 | 15 | 11 |
| CC(=O)c1c(OCCN2CCCC(F)(F)C2)c(OCCC(C)c2ccc(F)cc2)c2oc(C(F)F)nc2c1C (stereo not shown) [Example 31b, 5-Acetyl-7-[3-(4-fluorophenyl)butoxy]-6-(2-(3,3-difluoropiperidin-1-yl)-ethoxy)-4-methyl-2-difluoromethyl-benzo[d]oxazole] | < 50 | < 50 | 21 | 29 |
| CC(=O)c1c(OCC[n+]2ccc(N)cc2)c(OCCC(C)c2ccc(F)cc2)c2oc(C)nc2c1C (stereo not shown) [Example 21, 5-Acetyl-6-(2-(4-aminopyridin-1-ium)ethoxy)-7-[3-(4-fluorophenyl)butoxy]-2,4-dimethyl-benzo[d]oxazole chloride] | > 1000 |  |  |  |
| CCN(CC)CCOc1c(C(C)=O)c(C)c2nc(C)oc2c1OCCC(C)c1ccc(F)cc1 (stereo not shown) [Example 20, 5-Acetyl-6-(2-diethylamino-ethoxy)-7-[3-(4-fluorophenyl)butoxy]-2,4-dimethyl-benzooxazole] | 200 to 1000 |  |  |  |
| CC(=O)c1c(OCCN2CCOCC2)c(OCCC(C)c2ccc(F)cc2)c2oc(C(F)(F)F)nc2c1C (stereo not shown) [Example 28c, 5-Acetyl-7-[3-(4-fluorophenyl)butoxy]-4-methyl-6-(2-morpholin-4-yl-ethoxy)-2-trifluoromethyl-benzooxazole] | 50 to 200 |  |  |  |
